Laboratory results published in patent publication US20090326441A1, “Ultrasonic Enhanced Microneedles” (AGENCY FOR SCIENCE ,TECHNOLOGY AND RESEARCH, priority 2006, published 2009).

Assay: Penetration of calcein through pig skin in Franz cell test device
Type: in vitro ADME
Conditions: calcein solution 1 mmol, 0.523 mg/ml, receiving liquid PBS, 37° C., FIG. 9
Description: An injection device according to the present invention was constructed as described above. Testing was performed using calcein on pig skin, using the apparatus in FIG. 8. The graph of FIG. 9 presents the results of testing in three different situations: without enhancers, with hollow microneedles and using the method of the present invention, using microneedles with ultrasonic enhancement. With reference to FIG. 8, test device 10 comprises injection device 20 which has been applied to skin sample 30. Pig skin sample 30 communicates with a receiving liquid in receiving chamber 40. Arm 50 is provided to chamber 40 for inserting or withdrawing the receiving liquid. Chamber 40 is located in Franz cell 60, which comprises a water bath 65 and inlet and outlet ports 70 and 75 respectively for maintaining the receiving liquid at a constant temperature. Sample chamber 80 is provided for holding a test sample. […]
In order to conduct the test using test device 10, calcein solution (1 mmol, 0.523 mg/ml) was placed in chamber 80 so as to supply the solution to device 20, and a receiving liquid (PBS: phosphate buffered saline) was loaded into chamber 40. […] The concentration of calcein in the receiving liquid was then monitored by withdrawing aliquots from arm 50 and analysing them. […]

With `O=C(O)CN(CC(=O)O)Cc1cc2c(cc1O)Oc1cc(O)c(CN(CC(=O)O)CC(=O)O)cc1C21OC(=O)c2ccccc21` [calcein] the “transport of calcein across the skin sample” value (microneedles and ultrasound (20 kHz, 0.5 Wcm^−2), compared with microneedles alone) was “enhanced” and the “transport of calcein across the skin sample” value (microneedles, no ultrasound, compared with no microneedles (without enhancers)) was “improvement”.
